Reference: article PMC2362735, “New semisynthetic vinca alkaloids: chemical, biochemical and cellular studies” (British Journal of Cancer, 1999)

Test system: Mouse Ehrlich ascites tumour cells
Assay: In vivo anti-tumour effect on Ehrlich ascites carcinoma, single i.p. dose 4 days after transplantation
Source text: The numerous antimitotic drugs already developed and therapeu- tically used for a large number of pathologies belong to different classes based on their chemical structure and other distinctive features. Antimitotic drugs usually target the tubulin/microtubule network of the cytoskeleton that is formed by assembly of cyto- plasmic tubulin dimers. The stability of the different microtubular structures varies considerably; some of their functions depend on their lability. The lability is augmented by the extreme sensitivity to various drugs. Several synthetic and natural compounds interact specifically with tubulin and/or microtubule, fundamentally destroying its dynamic character and leading to cell death. […] Because of their extensive clinical use, it is important to synthesize additional agents having at least the same biological activity. […] Nevertheless, it is unclear yet how the anti-calmodulin activity of these drugs is related to their desired and undesired pharmacological effects. […] The synthesis of the KAR derivatives are presented. […] Taxol, GTP and trifluoperazine were purchased from Sigma. All organic reagents for synthesis of the new compounds were obtained from Aldrich and were of the highest grade. All other chemicals were reagent grade commercial preparations. […] Tubulin was stored in 1 M sucrose, 10 mM sodium phosphate buffer, 0.5 mM magnesium chloride and 0.1 mM GTP, pH 7.0, at -80C and dialysed against the appropriate buffer before use. […] PFK, aldolase and glycerol-3-phosphate dehydrogenase- triosephosphate isomerase purified from rabbit skeletal muscle were purchased in ammonium sulphate suspensions from Sigma or Boehringer. The enzyme suspensions were centrifuged at 10 000g for 5 min. The pellets were suspended in the appropriate buffer, then the enzymes were gel filtered or dialysed in the same buffer to remove ammonium sulphate. […] (Figure 1B; R1 , CH3; R2 , CH2 CH2 Cl). […] After 2 h incubation at room temperature, 200 ml dried toluene was added to the reaction mixture. […] The mixture was stirred for 30 min. After separation of the organic phase, it was washed with water (3 x 30 ml) and dried with potassium sulphate and evaporated on a water bath of 35-40C at 20-27 hPa. The resulting material was chromatographed on silica gel (500 g, bead size of 0.040- 0.063 mm) column (30 mm x 500 mm) using ethyl acetate/ethanol (9:1) mixture as eluent. […] The mixture was kept for 4 h at room temperature and then evaporated on a water bath at 40C under a vacuum of 80 hPa to a final volume of 5-6 ml. […] (Figure 1B, R1 , CHO; R2 , CH2 CH2 Cl). […] Synthesis of KAR-4 [3-allyl-2,4-dioxo-3,5-spiro-oxazolidino- 4-deacetoxy-vinblastine] (Figure 1B; R1 , CH3; R2 , CH2 CH=CH2 ). […] NMR measurements were carried out on a Varian Unity plus-500 instrument (500 MHz for 1H and 125 MHz for 13C) in DMSO. Chemical shifts were determined relative to dTMS = 0.00 p.p.m. 1H and 13C signal assignments were verified by a concerted use of two-dimensional 1H-1H and 1H-13C shift correlation methods (DQFCOSY, HSQC, HMBC) and NOESY experiments. The gradient-enhanced DQFCOSY, HSQC, HMBC and NOESY experiments were recorded by using the standard spectrometer software package. A mixing time of tmix = 0.5 s was used for the NOESY experiments.

[1] = Table 2A, 40 mg kg-1 single dose i.p.
[2] = Table 2B, 20 mg kg-1 single dose i.p.
[3] = Table 2B, 40 mg kg-1 single dose i.p.
[4] = Table 2B, 60 mg kg-1 single dose i.p.
[5] = Table 2B, 80 mg kg-1 single dose i.p.

`CC[C@]1(O)C[C@@H]2CN(CCc3c([nH]c4ccccc34)[C@@](C(=O)OC)(c3cc4c(cc3OC)N(C)[C@@H]3[C@]45CCN4CC=C[C@@](CC)(C[C@@]36OC(=O)N(CCCl)C6=O)[C@H]45)C2)C1` [KAR-2, 3′-(β-chloroethyl)-2′,4′-dioxo-3,5′-spiro-oxazolidino-4-deacetoxy-vinblastine] was tested. Which “mortality of treated animals” value (80 mg kg-1 single dose i.p., three mice per group) did it give?
Its value is “The animals were dying in the same day of the sacrifice”.

And the “Cells ml-1 (per cent of control)” value [1]?
The value was 56 per cent of control.

And the “Total cells (per cent of control)” value [1]?
Its value is 24 per cent of control.

What about the “Volume of tumour per mouse” value (Table 2A, 40 mg kg-1 single dose i.p., sacrifice 8 days after implantation, control 5.33 ml) of the same molecule?
Its value is 2.33 mL.

What about the “Cells ml-1 (per cent of control)” value [2] of the same molecule?
Its value is 63 per cent of control.

And the “Total cells (per cent of control)” value [2]?
The value was 46 per cent of control.

And the “Volume of tumour per mouse” value (Table 2B, 20 mg kg-1 single dose i.p., control 2.67 ml)?
Its value is 1.97 mL.

And the “Cells ml-1 (per cent of control)” value [3]?
Its value is 60 per cent of control.

And the “Total cells (per cent of control)” value [3]?
Its value is 24 per cent of control.

And the “Volume of tumour per mouse” value (Table 2B, 40 mg kg-1 single dose i.p., control 2.67 ml)?
Its value is 1.17 mL.

What about the “Cells ml-1 (per cent of control)” value [4] of the same molecule?
The value was 46 per cent of control.

And the “Total cells (per cent of control)” value [4]?
The value was 29 per cent of control.

And the “Volume of tumour per mouse” value (Table 2B, 60 mg kg-1 single dose i.p., control 2.67 ml)?
Its value is 1.70 mL.

And the “Cells ml-1 (per cent of control)” value [5]?
Its value is 211 per cent of control.

And the “Total cells (per cent of control)” value [5]?
The value was 36 per cent of control.

What about the “Volume of tumour per mouse” value (Table 2B, 80 mg kg-1 single dose i.p., control 2.67 ml) of the same molecule?
Its value is 0.45 mL.
